Earlier results as cited in US7851190B2, “Biosynthetic gene cluster for leptomycins” (priority 2003, dated 2010).

Tests used:
[1] = system: HIV-1 Rev; conditions: in vitro; FIG. 2
[2] = system: adriamycin, amsacrine and mitoxantrone resistant P388 leukemia, other leukemias, B16 melanoma, Ridgway osteogenic and M5076 sarcomas and mammary adenocarinoma

In the case of CCC(=C/[C@H](C)C/C=C/C(C)=C/[C@@H](C)C(=O)[C@@H](C)[C@H](O)[C@@H](C)C/C(C)=C/C(=O)O)/C=C/[C@@H]1OC(=O)C=C[C@@H]1C [LMB, Leptomycin B], the “difference in activity between a Rev-dependent assay and cytotoxicity to the same cells” value [1] is listed as “approx. 250 fold”, the acute toxicity ([2]; exacerbated upon more frequent or oral administration) is listed as “gastrointestinal” and the antitumor activity ([2]; mouse murine and xenograph cancer models, low doses) is listed as “Activity was observed at low doses”.
For CCOC(=O)/C=C\n1ncnc1-c1cc(Cl)ccc1N [PKF050-638], the “difference in activity between a Rev-dependent assay and cytotoxicity to the same cells” value [1] is given as 75 fold.
